Values of other authors as cited in US11304902B2, “Pharmaceutical compositions, preparation and uses thereof” (CURADIGM SAS, priority 2014, dated 2022).
Entries after “also recorded” stand apart in the source; their conditions may differ. Like-named read-outs stand apart in the source and are kept apart here.

Tests used:
Settings in all cases: human CYP enzyme
[1] = biological target: T1, CYP1A1 (Homo sapiens, UniProt P04798)
T1 sequence (P04798 1-512): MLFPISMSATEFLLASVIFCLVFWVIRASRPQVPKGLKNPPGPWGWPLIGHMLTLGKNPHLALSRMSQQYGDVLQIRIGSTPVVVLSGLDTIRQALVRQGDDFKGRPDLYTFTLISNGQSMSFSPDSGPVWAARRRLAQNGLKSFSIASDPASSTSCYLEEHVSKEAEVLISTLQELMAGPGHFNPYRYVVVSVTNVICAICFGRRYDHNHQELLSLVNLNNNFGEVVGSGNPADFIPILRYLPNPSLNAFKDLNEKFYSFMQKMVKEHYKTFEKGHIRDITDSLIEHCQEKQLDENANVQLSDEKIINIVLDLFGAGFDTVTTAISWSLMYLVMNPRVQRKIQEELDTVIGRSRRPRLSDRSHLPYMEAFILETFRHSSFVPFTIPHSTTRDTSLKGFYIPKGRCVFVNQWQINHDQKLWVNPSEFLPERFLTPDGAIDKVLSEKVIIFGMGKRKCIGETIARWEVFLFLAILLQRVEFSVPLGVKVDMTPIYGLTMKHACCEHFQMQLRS

[2] = biological target: T2, CYP19 (Homo sapiens, UniProt P11511)
T2 sequence (P11511 1-503): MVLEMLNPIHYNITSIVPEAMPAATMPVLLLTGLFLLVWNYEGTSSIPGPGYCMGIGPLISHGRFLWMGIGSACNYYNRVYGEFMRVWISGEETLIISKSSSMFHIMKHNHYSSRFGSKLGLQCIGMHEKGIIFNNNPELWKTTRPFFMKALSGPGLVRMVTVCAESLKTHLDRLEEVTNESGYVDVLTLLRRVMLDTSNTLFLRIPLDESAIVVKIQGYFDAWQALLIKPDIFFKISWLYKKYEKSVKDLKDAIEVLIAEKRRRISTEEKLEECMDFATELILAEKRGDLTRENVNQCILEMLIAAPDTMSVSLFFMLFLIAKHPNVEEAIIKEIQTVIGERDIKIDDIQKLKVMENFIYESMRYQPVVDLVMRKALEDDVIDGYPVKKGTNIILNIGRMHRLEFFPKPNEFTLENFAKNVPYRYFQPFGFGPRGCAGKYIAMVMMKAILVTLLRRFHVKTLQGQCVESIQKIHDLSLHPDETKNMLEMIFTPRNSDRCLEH

[3] = biological target: CYP3A4 (Homo sapiens, UniProt P08684)
CYP3A4, sequence (P08684 whole entry): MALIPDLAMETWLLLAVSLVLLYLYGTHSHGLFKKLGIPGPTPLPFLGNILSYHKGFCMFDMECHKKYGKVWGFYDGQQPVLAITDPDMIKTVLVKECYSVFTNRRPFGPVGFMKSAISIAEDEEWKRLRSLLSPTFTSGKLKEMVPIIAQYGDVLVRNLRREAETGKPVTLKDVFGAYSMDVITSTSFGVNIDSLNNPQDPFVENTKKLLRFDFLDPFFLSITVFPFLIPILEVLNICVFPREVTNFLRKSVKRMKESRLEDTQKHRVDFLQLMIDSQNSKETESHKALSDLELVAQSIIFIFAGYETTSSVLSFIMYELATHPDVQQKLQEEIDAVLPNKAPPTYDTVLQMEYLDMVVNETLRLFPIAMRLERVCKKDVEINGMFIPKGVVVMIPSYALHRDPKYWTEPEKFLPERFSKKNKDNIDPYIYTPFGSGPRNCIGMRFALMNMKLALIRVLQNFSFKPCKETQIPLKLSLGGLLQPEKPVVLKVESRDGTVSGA

[4] = biological target: T3, CYP2C8 (Homo sapiens, UniProt P10632)
T3 sequence (P10632 1-490): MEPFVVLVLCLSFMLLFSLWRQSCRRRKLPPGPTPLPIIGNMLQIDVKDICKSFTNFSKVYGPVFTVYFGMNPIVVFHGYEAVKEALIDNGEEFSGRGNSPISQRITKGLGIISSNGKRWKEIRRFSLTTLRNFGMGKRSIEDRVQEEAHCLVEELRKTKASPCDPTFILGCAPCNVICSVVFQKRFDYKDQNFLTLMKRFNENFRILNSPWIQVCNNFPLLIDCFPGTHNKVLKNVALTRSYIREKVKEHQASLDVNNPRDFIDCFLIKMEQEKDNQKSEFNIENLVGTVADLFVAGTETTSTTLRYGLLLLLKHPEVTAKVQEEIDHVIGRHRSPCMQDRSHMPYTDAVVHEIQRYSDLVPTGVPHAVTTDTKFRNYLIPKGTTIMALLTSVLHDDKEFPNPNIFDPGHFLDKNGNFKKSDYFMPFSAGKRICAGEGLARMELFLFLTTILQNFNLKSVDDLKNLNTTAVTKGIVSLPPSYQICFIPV

[5] = biological target: T4, CYP11B1 (Homo sapiens, UniProt P15538)
T4 sequence (P15538 25-503): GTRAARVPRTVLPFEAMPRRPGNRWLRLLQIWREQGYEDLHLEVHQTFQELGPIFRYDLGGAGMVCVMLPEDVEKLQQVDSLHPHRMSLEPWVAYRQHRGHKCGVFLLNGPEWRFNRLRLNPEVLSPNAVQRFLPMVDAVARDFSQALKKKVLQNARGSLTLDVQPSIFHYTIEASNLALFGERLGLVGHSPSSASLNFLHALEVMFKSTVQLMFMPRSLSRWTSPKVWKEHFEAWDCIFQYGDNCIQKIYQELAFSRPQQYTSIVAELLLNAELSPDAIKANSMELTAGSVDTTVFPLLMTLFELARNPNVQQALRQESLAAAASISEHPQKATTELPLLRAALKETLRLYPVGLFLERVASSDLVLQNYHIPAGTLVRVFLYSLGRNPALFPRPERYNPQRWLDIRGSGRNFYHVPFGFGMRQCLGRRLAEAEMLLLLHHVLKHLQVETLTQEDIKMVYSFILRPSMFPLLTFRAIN

[6] = biological target: T5, CYP1A2 (Homo sapiens, UniProt P05177)
T5 sequence (P05177 1-516): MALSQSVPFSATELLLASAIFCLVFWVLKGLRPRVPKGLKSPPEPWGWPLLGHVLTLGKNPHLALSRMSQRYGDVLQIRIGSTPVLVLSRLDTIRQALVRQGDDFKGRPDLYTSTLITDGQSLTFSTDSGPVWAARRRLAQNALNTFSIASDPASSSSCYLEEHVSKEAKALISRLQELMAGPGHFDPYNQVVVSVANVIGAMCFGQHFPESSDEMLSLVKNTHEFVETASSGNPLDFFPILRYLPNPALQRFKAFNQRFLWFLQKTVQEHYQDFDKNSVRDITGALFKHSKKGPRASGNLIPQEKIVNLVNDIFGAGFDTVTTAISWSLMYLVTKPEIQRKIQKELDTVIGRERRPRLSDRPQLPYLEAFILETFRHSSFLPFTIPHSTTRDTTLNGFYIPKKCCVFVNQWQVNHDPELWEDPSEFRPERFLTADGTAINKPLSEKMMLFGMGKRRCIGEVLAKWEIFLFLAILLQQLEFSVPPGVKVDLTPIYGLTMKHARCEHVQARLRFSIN

[7] = biological target: CYP2D6 (Homo sapiens, UniProt P10635)
CYP2D6, sequence (P10635 whole entry): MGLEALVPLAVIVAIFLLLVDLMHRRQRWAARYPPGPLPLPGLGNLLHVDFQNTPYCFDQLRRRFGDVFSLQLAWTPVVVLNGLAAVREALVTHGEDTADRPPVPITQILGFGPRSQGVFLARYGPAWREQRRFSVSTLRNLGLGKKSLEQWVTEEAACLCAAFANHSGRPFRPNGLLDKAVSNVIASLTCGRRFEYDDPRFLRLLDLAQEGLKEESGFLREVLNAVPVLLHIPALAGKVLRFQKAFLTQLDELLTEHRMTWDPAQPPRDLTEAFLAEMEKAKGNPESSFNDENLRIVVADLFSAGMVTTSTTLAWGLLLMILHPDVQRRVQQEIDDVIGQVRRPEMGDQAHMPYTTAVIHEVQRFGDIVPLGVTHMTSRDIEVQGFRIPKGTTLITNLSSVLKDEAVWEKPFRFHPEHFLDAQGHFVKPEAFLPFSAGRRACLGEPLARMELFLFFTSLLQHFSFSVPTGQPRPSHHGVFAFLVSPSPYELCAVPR

[8] = biological target: T6, CYP2C18 (Homo sapiens, UniProt P33260)
T6 sequence (P33260 26-490): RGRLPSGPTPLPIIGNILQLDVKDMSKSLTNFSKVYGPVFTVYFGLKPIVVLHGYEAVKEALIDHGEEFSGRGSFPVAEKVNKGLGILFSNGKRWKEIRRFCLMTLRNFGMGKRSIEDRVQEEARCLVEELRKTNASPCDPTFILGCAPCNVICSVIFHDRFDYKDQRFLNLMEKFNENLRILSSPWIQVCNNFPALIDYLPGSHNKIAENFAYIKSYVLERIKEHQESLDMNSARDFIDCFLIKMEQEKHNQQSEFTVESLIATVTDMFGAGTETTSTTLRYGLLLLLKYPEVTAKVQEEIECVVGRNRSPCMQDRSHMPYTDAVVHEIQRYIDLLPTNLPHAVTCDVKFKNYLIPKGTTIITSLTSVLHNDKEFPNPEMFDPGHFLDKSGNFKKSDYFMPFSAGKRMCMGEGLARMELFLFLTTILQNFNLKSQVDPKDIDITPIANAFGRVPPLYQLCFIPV

[9] = biological target: T7, CYP2B6 (Homo sapiens, UniProt P20813)
T7 sequence (P20813 1-491): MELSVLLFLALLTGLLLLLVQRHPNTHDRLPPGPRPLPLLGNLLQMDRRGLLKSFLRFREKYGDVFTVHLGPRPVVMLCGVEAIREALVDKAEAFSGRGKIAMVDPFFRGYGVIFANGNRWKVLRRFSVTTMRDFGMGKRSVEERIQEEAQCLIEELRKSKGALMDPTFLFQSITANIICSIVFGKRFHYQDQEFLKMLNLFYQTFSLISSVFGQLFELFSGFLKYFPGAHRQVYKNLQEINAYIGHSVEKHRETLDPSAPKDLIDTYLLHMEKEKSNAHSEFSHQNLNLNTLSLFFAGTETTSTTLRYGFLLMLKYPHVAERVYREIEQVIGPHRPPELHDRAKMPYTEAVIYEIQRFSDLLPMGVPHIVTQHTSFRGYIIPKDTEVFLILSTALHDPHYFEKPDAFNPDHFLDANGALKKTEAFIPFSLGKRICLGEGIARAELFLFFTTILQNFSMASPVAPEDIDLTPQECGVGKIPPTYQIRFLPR

[10] = biological target: CYP2C9 (Homo sapiens, UniProt P11712)
CYP2C9, sequence (P11712 whole entry): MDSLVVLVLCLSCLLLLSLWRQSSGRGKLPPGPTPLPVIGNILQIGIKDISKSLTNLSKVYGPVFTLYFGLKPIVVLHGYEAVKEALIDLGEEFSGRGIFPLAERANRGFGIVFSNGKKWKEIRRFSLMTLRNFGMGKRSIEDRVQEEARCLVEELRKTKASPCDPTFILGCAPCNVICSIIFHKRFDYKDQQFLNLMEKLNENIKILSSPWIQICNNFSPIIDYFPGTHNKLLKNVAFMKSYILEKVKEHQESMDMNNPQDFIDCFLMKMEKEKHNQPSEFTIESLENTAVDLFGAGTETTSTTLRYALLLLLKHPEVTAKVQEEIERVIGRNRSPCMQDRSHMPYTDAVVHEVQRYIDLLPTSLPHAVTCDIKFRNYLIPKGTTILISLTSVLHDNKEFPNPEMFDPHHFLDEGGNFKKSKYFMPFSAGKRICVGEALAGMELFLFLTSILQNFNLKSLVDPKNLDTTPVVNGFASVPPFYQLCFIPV

[11] = biological target: CYP2C19 (Homo sapiens, UniProt P33261)
CYP2C19, sequence (P33261 whole entry): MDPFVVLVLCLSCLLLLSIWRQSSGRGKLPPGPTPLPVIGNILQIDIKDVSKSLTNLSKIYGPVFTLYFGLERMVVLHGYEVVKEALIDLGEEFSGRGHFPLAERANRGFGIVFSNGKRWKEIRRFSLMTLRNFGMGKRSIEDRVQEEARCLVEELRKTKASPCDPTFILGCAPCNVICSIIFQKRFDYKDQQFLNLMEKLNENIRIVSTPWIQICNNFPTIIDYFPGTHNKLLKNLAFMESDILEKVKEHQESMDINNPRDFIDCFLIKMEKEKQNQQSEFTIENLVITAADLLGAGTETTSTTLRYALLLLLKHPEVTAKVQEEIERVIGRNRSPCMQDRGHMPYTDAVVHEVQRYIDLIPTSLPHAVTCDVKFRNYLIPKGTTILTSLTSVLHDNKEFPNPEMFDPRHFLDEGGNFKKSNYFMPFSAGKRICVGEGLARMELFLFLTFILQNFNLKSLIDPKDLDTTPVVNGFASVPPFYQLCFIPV

[12] = biological target: T8, CYP1B1 (Homo sapiens, UniProt Q16678)
T8 sequence (Q16678 1-543): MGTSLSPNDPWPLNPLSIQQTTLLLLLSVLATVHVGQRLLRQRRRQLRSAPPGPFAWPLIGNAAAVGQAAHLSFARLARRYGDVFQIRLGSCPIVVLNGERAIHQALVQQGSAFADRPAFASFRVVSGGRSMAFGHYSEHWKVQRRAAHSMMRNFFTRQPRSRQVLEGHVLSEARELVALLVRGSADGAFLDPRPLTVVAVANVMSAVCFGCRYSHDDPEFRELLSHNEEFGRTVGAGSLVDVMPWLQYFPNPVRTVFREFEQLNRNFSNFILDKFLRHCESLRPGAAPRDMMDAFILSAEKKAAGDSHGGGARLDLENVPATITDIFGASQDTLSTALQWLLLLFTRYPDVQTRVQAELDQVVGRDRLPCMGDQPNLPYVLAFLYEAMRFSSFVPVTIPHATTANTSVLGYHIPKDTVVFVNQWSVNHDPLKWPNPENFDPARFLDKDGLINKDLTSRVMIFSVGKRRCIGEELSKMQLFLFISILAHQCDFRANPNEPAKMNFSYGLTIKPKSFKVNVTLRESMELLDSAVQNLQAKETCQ

SMILES | role towards CYP1A1 (substrate / inhibitor / inducer) [1] | role towards CYP3A4 (substrate / inhibitor / inducer) [3] | role towards CYP2C8 (substrate / inhibitor / inducer) [4] | role towards CYP2D6 (substrate / inhibitor / inducer) [7] | role towards CYP2B6 (substrate / inhibitor / inducer) [9] | further results
O=c1cc(-c2ccc(O)cc2)oc2cc(O)cc(O)c12 [Apigenin, apigenin] | Inhibitor | – | – | – | – | –
O=c1c(O)c(-c2ccc(O)c(O)c2)oc2cc(O)cc(O)c12 [Quercetin, quercetin] | Inhibitor | Inhibitor | Inhibitor | – | – | role towards CYP19 (substrate / inhibitor / inducer) [2]: Inhibitor; role towards CYP11B1 (substrate / inhibitor / inducer) [5]: Inhibitor; role towards CYP1A2 (substrate / inhibitor / inducer) [6]: Inhibitor
COc1cccc2c1C(=O)c1c(O)c3c(c(O)c1C2=O)C[C@@](O)(C(=O)CO)C[C@@H]3O[C@H]1C[C@H](N)[C@H](O)[C@H](C)O1 [Doxorubicin, doxorubicin] | – | Substrate; also recorded: inhibitor | – | inhibitor | – | –
CC(=O)CC(c1ccccc1)c1c(O)c2ccccc2oc1=O (stereo not drawn) [Warfarin, warfarin] | Substrate | Substrate | Substrate | – | – | role towards CYP2C18 (substrate / inhibitor / inducer) [8]: Substrate; role towards CYP1A2 (substrate / inhibitor / inducer) [6]: Substrate
O=C1Nc2ccc(Cl)cc2[C@@](C#CC2CC2)(C(F)(F)F)O1 [Efavirenz, efavirenz] | – | – | – | inhibitor | Substrate; also recorded: inhibitor | role towards CYP2C9 (substrate / inhibitor / inducer) [10]: inhibitor; role towards CYP2C19 (substrate / inhibitor / inducer) [11]: inhibitor
CC1=C(/C=C/C(C)=C/C=C/C(C)=C/CO)C(C)(C)CCC1 [Vitamin A retinol, retinol] | Inhibitor | – | Inhibitor; also recorded: Substrate | Substrate | Inhibitor | –
CC(=O)O[C@@]12CO[C@@H]1C[C@H](O)[C@@]1(C)C(=O)[C@H](O)C3=C(C)[C@@H](OC(=O)[C@H](O)[C@@H](NC(=O)OC(C)(C)C)c4ccccc4)C[C@@](O)([C@@H](OC(=O)c4ccccc4)[C@H]21)C3(C)C [Docetaxel, docetaxel] | – | Substrate | – | – | – | role towards CYP3A4 (substrate / inhibitor / inducer) ([3]; listed as docetaxel): substrate; role towards CYP1B1 (substrate / inhibitor / inducer) [12]: Substrate; also recorded: inhibitor
O=C1C[C@@H](c2ccc(O)cc2)Oc2cc(O)cc(O)c21 [Naringenin, naringenin] | – | inhibitor | – | – | – | role towards CYP11B1 (substrate / inhibitor / inducer) [5]: Inhibitor
CC(=O)O[C@H]1C(=O)[C@@]2(C)[C@H]([C@H](OC(=O)c3ccccc3)[C@]3(O)C[C@H](OC(=O)[C@H](O)[C@@H](NC(=O)c4ccccc4)c4ccccc4)C(C)=C1C3(C)C)[C@]1(OC(C)=O)CO[C@@H]1C[C@@H]2O [Paclitaxel, paclitaxel] | – | Substrate; also recorded: inhibitor | – | – | – | –
CO[C@H]1/C=C/O[C@@]2(C)Oc3c(C)c(O)c4c(O)c(c(/C=N/N5CCN(C)CC5)c(O)c4c3C2=O)NC(=O)/C(C)=C\C=C\[C@H](C)[C@H](O)[C@@H](C)[C@@H](O)[C@@H](C)[C@H](OC(C)=O)[C@@H]1C [Rifampin, rifampin] | – | – | – | – | inducer | role towards CYP2C18 (substrate / inhibitor / inducer) [8]: inducer
